This note sets out measurements from paper PMC11435220, “Anticancer Activity of Imidazolyl Gold(I/III) Compounds in Non-Small Cell Lung Cancer Cell Lines” (Pharmaceuticals, 2024).

One may read the IC50 as the concentration at which inhibition is half-maximal.

Series [1] has as its system human NSCLC cell lines with KRAS mutations. In words: MTT assay, average across NSCLC cell lines with KRAS mutations. In kind it is cell-based. Conditions: 48 h, read-out: IC50 * averaged values. As to the method: (§1) NSCLC cell lines were obtained from the Hamon Center for Therapeutic Oncology Research (UT Southwestern Medical Center). IMR-90 human lung fibroblasts were from ATCC (CC-186). All cell lines were maintained and treated in RPMI medium (Cytiva (Shanghai, China), #SH30027), supplemented with 10% heat-inactivated FBS (Millipore Sigma (Darmstadt, Germany), F0394).
(§2) 5000–10,000 cells/0.1 mL/well were seeded in 96-well plates to achieve 70% confluence after 24 h. All drug stock solutions were prepared fresh in DMSO at a concentration of 10 mM. The day after cell plating, we added 0.1 mL of medium containing the appropriate drug dilutions. After 48 h of treatment, 10 μL of MTT solution (5 mg/mL) was added to each well. After 4 h incubation, the medium was aspirated, and the formazan salts dissolved in 200 μL DMSO/well for 10 min at 37 °C. The absorbance was read at 570 nm (OD 570 nm). Data are represented as mean ± SD of two independent experiments.
(§3) Statistical and data analysis was performed using GraphPad Prism (v10). IC50 values were calculated using a three-parameter non-linear regression model with log(inhibitor) vs. response. For the TxrR activity statistics, the groups were compared using a two-way ANOVA followed by Dunnett’s multiple comparisons with alpha = 0.05. The correlation between IC50 values and TxrR activity was achieved using Pearson correlation with alpha = 0.05.

The subject of another series is H1395. Kind of series: MTT viability assay, H1395. In kind it is cell-based, human. As to conditions: mean ± span, 48 h treatment, cell line without KRAS mutation. On the procedure:
as §1, §2, §3
Background: Formazan colour is commonly taken as a measure of viable cells.

The next series relates to HCC-44. In words: MTT viability assay, HCC-44. As to conditions: mean ± span, 48 h treatment, cell line with KRAS mutation. In kind it is cell-based, human. As to the method:
as §1, §2, §3

In the next series the test system is H1792. In words: MTT viability assay, H1792. It counts as cell-based, human. Conditions: mean ± span, 48 h treatment, cell line with KRAS mutation. On the procedure:
as §1, §2, §3

Series [2] deals with TrxR in A549 cell lysates. In words: Thioredoxin reductase activity in lysates of treated A549 cells. It counts as cell-based, human. Conditions: for Mean Diff. TrxR activity vs. veh: A549 lysate, 24 h treatment at 5 μM. As to the method: (§4) The enzymatic activity of TrxR in the A549 and H522 cell lysates was measured using the TrxR assay Kit (Abcam ab83463) following the manufacturer’s instructions. This kit is based on the TxrR-mediated reduction of the colorless DTNB into TNB2—(yellow). Briefly, cells were plated to reach 70% confluence on a 100-mm dish in one day. They were treated with 5 μM of the gold compounds or the equivalent quantity of DMSO for 24 h. Then, cells were washed in PBS 1X, detached, and lysed in 100 μL of cold TrxR assay buffer supplemented with the Proteinase Inhibitor Cocktail. 20 μg and 40 μg of total proteins were used for the A549 and the H522, respectively. The DTNB substrate was added to samples with or without TrxR inhibitor (provided with the kit) in 96-well plates. The OD412 was measured soon after the substrate addition (A1) and then after 25, 60, 90, and 110 min (An) at 25 °C using a FLUOstar Omega Microplate Reader (BGM Labtech, Chicago, IL, USA). Data analysis was performed following the manufacturer’s instructions. The OD of TNB2, generated by TrxR in every condition, is:ΔA412 nm = (AnAB − AnINH) − (AB − A1INH) where AB is the assay buffer, and INH is the inhibitor. The TrxR activity is:(2) ΔB/Tn−T1×mg of protein lysate×sample dilution factor=(nmol/min)/mg=mU/mg where ΔB is the TNB amount calculated applying ΔA412 nm to TNB standard curve (in nmol), T1 is the time of the first reading (A1AB, and A1INH) (in min), Tn is the time of the second reading (AnAB and AnINH) (in min). The residual TxrR activity (%) was calculated by normalizing the TxrR activity for each compound with the matching vehicle values at every n time point.
as §3

The subject of the next series is H661. Kind of series: MTT viability assay, H661. In kind it is cell-based, human. Conditions: mean ± span, 48 h treatment, cell line without KRAS mutation. On the procedure: as §1, §2, §3
In the next series the test system is H522. In words: MTT viability assay, H522. In kind it is cell-based, human. Conditions: mean ± span, 48 h treatment, cell line without KRAS mutation. On the procedure: as §1, §2, §3
Series [3] in a line: Solution stability by UV-visible spectra over time. It counts as physicochemical. Conditions: UV-visible spectra over time; DMSO, methanol, PBS buffered solutions. On the procedure:
Stability studies were led by acquiring UV−visible spectra of 100 µM DMSO or methanol solutions of compounds 1∓8 over time (Figures S19–S29 in Supplementary Materials). […] The stability of NHC-AuX3 complexes (with X = Cl, compounds 1 and 2, with X = Br, compounds 5 and 6) was affected by the nature of both the substituents on the imidazolyl ligand and of the halide, showing a small decrease of the UV bands maxima in an hour. By analyzing the spectral data of compounds 1 and 2, a percent concentration reduction of about 4–5% was estimated within an hour, grading them eligible for biological tests. The partial instability may be attributed to the formation of cationic bis-carbeneAuCl2 species (Equation (1)), with the [bis-carbeneAuX2]^+ and the respective AuX2^−; these ions were actually detected as positive and negative ions in the ESI-MS spectra (see Figures S12 and S13). […] Additionally, the (+)ESI MS spectrum of the acetonitrile solution of compound 6 is particularly rich in positive ions (Figure S16). As concerns the mono-/bis-carbene formation, it is likely initiated by the large trans effect of the carbene ligands, which induces the chemical lability on the trans halide, triggers […], the formation of bis-carbeneAu(III) species, and AuX2^− or AuX4^− anions:2[NHC-AuX3] ⇔ [[(NHC)2AuX2] [AuX2^−] + 2X(1) […]
The stability of the samples 1-8 in DMSO solution was assayed by UV-visible spectroscopy. Spectra were acquired using the Shimadzu UV-2700i spectrophotometer, equipped with the Shimadzu CPS-100 Peltier, at 293 K. Unless diversely specified, 100 µM DMSO solutions of the 1-8 compounds were prepared and spectra were acquired each 10 minutes for a total of 60 minutes. The spectra obtained are reported as following.
Figure S19. UV-Visible Spectra acquired for complex 1.
Figure S20. UV-Visible Spectra acquired for complex 2. […]

Series [4] has as its system TrxR in H522 cell lysates. In words: Thioredoxin reductase activity in lysates of treated H522 cells. It counts as cell-based, human. As to conditions: for Mean Diff. TrxR activity vs. veh: H522 lysate, 24 h treatment at 5 μM. As to the method: as §4, §3
For series [5], the system named is human NSCLC cell lines without KRAS mutations. In words: MTT assay, average across NSCLC cell lines without KRAS mutations. Conditions: average across cell lines without KRAS mutations (H522, H661, H1395, H1993), 48 h, read-out: IC50 * averaged values. It counts as cell-based. On the procedure: as §1, §2, §3
The test system of the next series is H1993. Kind of series: MTT viability assay, H1993. In kind it is cell-based, human. As to conditions: mean ± span, 48 h treatment, cell line without KRAS mutation. As to the method:
as §1, §2, §3

A further series concerns A549. In words: MTT viability assay, A549. It counts as cell-based, human. Conditions: mean ± span, 48 h treatment, cell line with KRAS mutation. As to the method: as §1, §2, §3
The test system of another series is H460. In words: MTT viability assay, H460. Conditions: mean ± span, 48 h treatment, cell line with KRAS mutation. In kind it is cell-based, human. On the procedure:
as §1, §2, §3

For the next series, the system named is H1355. In words: MTT viability assay, H1355. It counts as cell-based, human. Conditions: mean ± span, 48 h treatment, cell line with KRAS mutation. As to the method:
as §1, §2, §3

For the compound `C[n+]1ccn(Cc2ccccc2)[c]1[Au-]([Br])([Br])[Br]` [Compound 6], the IC50 is 29 µM in series [1]; 62 ± 2.4 µM in the series on H1395; 19 ± 1.4 µM in the series with HCC-44; 15 ± 1.1 µM in the series with H1792; 26 ± 1.5 µM with H661; 55 ± 1.9 µM in the series with H522. In addition, the IC50 in series [5] worked out at 37 µM; in the series on H1993 it was 5.6 ± 0.76 µM; with A549, 13 ± 1.03 µM; in the series with H460 it was 37 ± 1.8 µM; in the series with H1355 it was 59 ± 1.7 µM. Also, the “TrxR activity reduction / inhibition” value is reported as 30–40% in [2] (A549, 24 h treatment, stated for both cell lines) and 30–40% in series [4] (H522, 24 h treatment, stated for both cell lines). The “Mean Diff. TrxR activity vs. veh” value in [2] (reading at 25 min) is −17.37%; in series [2] (reading at 60 min), −2.183%; in series [2] (reading at 90 min) it was −31.09%; in series [2] (reading at 110 min) it was −38.86%; in series [4] (reading at 25 min), −31.68%; in [4] (reading at 60 min), −37.22%. The “Mean Diff. TrxR activity vs. veh” value in series [4] (reading at 90 min) is listed as −39.82%; in series [4] (reading at 110 min), −46.06%. Besides, the “stability in solution” value in series [3] is recorded as “least stable in solution”.
